These results are taken from patent US20080269241A1, “BICYCLIC AMINOPROPYL TETRAHYDRO-PYRAZOLO-PYRIDINE MODULATORS OF CATHEPSIN S” (priority 2007, published 2008).

The target in one test is T1, human cathepsin S (CatS) (Homo sapiens, UniProt P25774).
T1 construct: made in house; host or cells: baculovirus system (insect cells)
T1 sequence (P25774 115-331): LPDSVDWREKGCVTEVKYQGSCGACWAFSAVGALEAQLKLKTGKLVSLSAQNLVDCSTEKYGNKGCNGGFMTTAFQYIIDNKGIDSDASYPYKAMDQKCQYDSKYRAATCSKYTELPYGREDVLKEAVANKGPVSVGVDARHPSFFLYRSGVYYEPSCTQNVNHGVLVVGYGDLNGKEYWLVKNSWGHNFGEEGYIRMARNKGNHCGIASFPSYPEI
Kind of test: Recombinant human cathepsin S (CatS) fluorogenic substrate inhibition assay.
Conditions: not given
The class given is biochemical. Here is the method:
Recombinant human cathepsin S (CatS) was expressed in the baculovirus system and purified in one step with a thiopropyl-sepharose column. […] The assay is run in 150 mM sodium acetate pH 5.0 containing 1.5 mM DTT and 150 mM NaCl. […] Measurements are taken every min for 20 min. The rate is calculated from the slope of the increase in fluorescence and the percent inhibition is calculated from this.
Usually IC50 stands for the concentration at which inhibition is half-maximal. Take `CN(C)C(=O)NCc1cc(-c2nn(CC(O)CN3CCC(n4c(=O)n(C)c5ccc(N(C)C)nc54)CC3)c3c2CN(S(C)(=O)=O)CC3)ccc1C(F)(F)F` (stereo not shown) [Example 147, 2-Dimethylamino-N-[5-(1-{3-[4-(5-Dimethylamino-1-methyl-2-oxo-1,2-dihydro-imidazo[4,5-b]pyridin-3-yl)-piperidin-1-yl]-2-hydroxy-propyl}-5-methanesulfonyl-4,5,6,7-tetrahydro-1H-pyrazolo[4,3-c]pyridin-3-yl)-2-trifluoromethyl-benzyl]-1,1-dimethyl-urea]: the IC50 turned out to be 140 nM.

The same test, now with this note: recombinant human CatS, 10 μM Z-Valine-Valine-Arginine-AMC, pH 5.0; average of results obtained; read-out: CatS IC50.
In the case of `CS(=O)(=O)N1CCc2c(c(-c3ccc(C(F)(F)F)c(CNC(=O)c4ccc[nH]4)c3)nn2CC(O)CN2CCC(N3CCCC3=O)CC2)C1` (stereo not shown) [Example 124, 1H-Pyrrole-2-carboxylic acid 5-(1-{2-hydroxy-3-[4-(2-oxo-pyrrolidin-1-yl)-piperidin-1-yl]-propyl}-5-methanesulfonyl-4,5,6,7-tetrahydro-1H-pyrazolo[4,3-c]pyridin-3-yl)-2-trifluoromethyl-benzylamide], the IC50 stood at 180 nM.
The same measure, in the same setting: next, `CSCC(=O)NCc1cc(-c2nn(CCCN3CCC(N4CCCC4=O)CC3)c3c2CN(S(C)(=O)=O)CC3)ccc1C(F)(F)F` [Example 125, N-[5-(5-Methanesulfonyl-1-{3-[4-(2-oxo-pyrrolidin-1-yl)-piperidin-1-yl]-propyl}-4,5,6,7-tetrahydro-1H-pyrazolo[4,3-c]pyridin-3-yl)-2-trifluoromethyl-benzyl]-2-methylsulfanyl-acetamide]: 200 nM; `CS(=O)(=O)N1CCc2c(c(-c3ccc(C(F)(F)F)c(CNC(=O)c4cccnc4)c3)nn2CC(O)CN2CCC(N3CCCC3=O)CC2)C1` (stereo not shown) [Example 126, N-[5-(1-{2-Hydroxy-3-[4-(2-oxo-pyrrolidin-1-yl)-piperidin-1-yl]-propyl}-5-methanesulfonyl-4,5,6,7-tetrahydro-1H-pyrazolo[4,3-c]pyridin-3-yl)-2-trifluoromethyl-benzyl]-nicotinamide]: 210 nM; `CC(C)(C)OC(=O)N1CCC(C(=O)NCc2cc(-c3nn(CC(O)CN4CCC(N5CCCC5=O)CC4)c4c3CN(S(C)(=O)=O)CC4)ccc2C(F)(F)F)CC1` (stereo not shown) [Example 127, 4-[5-(1-{2-Hydroxy-3-[4-(2-oxo-pyrrolidin-1-yl)-piperidin-1-yl]-propyl}-5-methanesulfonyl-4,5,6,7-tetrahydro-1H-pyrazolo[4,3-c]pyridin-3-yl)-2-trifluoromethyl-benzylcarbamoyl]-piperidine-1-carboxylic acid tert-butyl ester]: 220 nM.
For `CS(=O)(=O)N1CCc2c(c(-c3ccc(C(F)(F)F)c(CNC(=O)c4ccncc4)c3)nn2CC(O)CN2CCC(N3CCCC3=O)CC2)C1` (stereo not shown) [Example 128, N-[5-(1-{2-Hydroxy-3-[4-(2-oxo-pyrrolidin-1-yl)-piperidin-1-yl]-propyl}-5-methanesulfonyl-4,5,6,7-tetrahydro-1H-pyrazolo[4,3-c]pyridin-3-yl)-2-trifluoromethyl-benzyl]-isonicotinamide], the IC50 was determined as 240 nM.
The same measure, in the same setting: next, `CC(=O)Nc1cc(C(=O)NCc2cc(-c3nn(CC(O)CN4CCC(N5CCCC5=O)CC4)c4c3CN(S(C)(=O)=O)CC4)ccc2C(F)(F)F)ccn1` (stereo not shown) [Example 129, 2-Acetylamino-N-[5-(1-{2-hydroxy-3-[4-(2-oxo-pyrrolidin-1-yl)-piperidin-1-yl]-propyl}-5-methanesulfonyl-4,5,6,7-tetrahydro-1H-pyrazolo[4,3-c]pyridin-3-yl)-2-trifluoromethyl-benzyl]-isonicotinamide]: 250 nM; `CS(=O)(=O)N1CCc2c(c(-c3ccc(C(F)(F)F)c(CNC(=O)C4CCCCCC4)c3)nn2CC(O)CN2CCC(N3CCCC3=O)CC2)C1` (stereo not shown) [Example 130, Cycloheptanecarboxylic acid 5-(1-{2-hydroxy-3-[4-(2-oxo-pyrrolidin-1-yl)-piperidin-1-yl]-propyl}-5-methanesulfonyl-4,5,6,7-tetrahydro-1H-pyrazolo[4,3-c]pyridin-3-yl)-2-trifluoromethyl-benzylamide]: 270 nM; `CC(O)CC(=O)NCc1cc(-c2nn(CCCN3CCC(N4CCCC4=O)CC3)c3c2CN(S(C)(=O)=O)CC3)ccc1C(F)(F)F` (stereo not shown) [Example 131, 3-Hydroxy-N-[5-(5-methanesulfonyl-1-{3-[4-(2-oxo-pyrrolidin-1-yl)-piperidin-1-yl]-propyl}-4,5,6,7-tetrahydro-1H-pyrazolo[4,3-c]pyridin-3-yl)-2-trifluoromethyl-benzyl]-butyramide]: 270 nM.
Take `CS(=O)(=O)N1CCc2c(c(-c3ccc(C(F)(F)F)c(CNC(=O)c4ccc(N5CCOCC5)nc4)c3)nn2CC(O)CN2CCC(N3CCCC3=O)CC2)C1` (stereo not shown) [Example 132, N-[5-(1-{2-Hydroxy-3-[4-(2-oxo-pyrrolidin-1-yl)-piperidin-1-yl]-propyl}-5-methanesulfonyl-4,5,6,7-tetrahydro-1H-pyrazolo[4,3-c]pyridin-3-yl)-2-trifluoromethyl-benzyl]-6-morpholin-4-yl-nicotinamide]: the IC50 worked out at 340 nM.
Turning to `Cn1cncc1C(=O)NCc1cc(-c2nn(CC(O)CN3CCC(N4CCCC4=O)CC3)c3c2CN(S(C)(=O)=O)CC3)ccc1C(F)(F)F` (stereo not shown) [Example 133, 3-Methyl-3H-imidazole-4-carboxylic acid 5-(1-{2-hydroxy-3-[4-(2-oxo-pyrrolidin-1-yl)-piperidin-1-yl]-propyl}-5-methanesulfonyl-4,5,6,7-tetrahydro-1H-pyrazolo[4,3-c]pyridin-3-yl)-2-trifluoromethyl-benzylamide], the IC50 came to 380 nM.
On the same count and under the same terms, with `CS(=O)(=O)N1CCc2c(c(-c3ccc(C(F)(F)F)c(CNC(=O)c4cncs4)c3)nn2CC(O)CN2CCC(N3CCCC3=O)CC2)C1` (stereo not shown) [Example 134, Thiazole-5-carboxylic acid 5-(1-{2-hydroxy-3-[4-(2-oxo-pyrrolidin-1-yl)-piperidin-1-yl]-propyl}-5-methanesulfonyl-4,5,6,7-tetrahydro-1H-pyrazolo[4,3-c]pyridin-3-yl)-2-trifluoromethyl-benzylamide] the figure was 380 nM.
Regarding `CS(=O)(=O)N1CCc2c(c(-c3ccc(C(F)(F)F)c(CNC(=O)CN4CCCCC4)c3)nn2CCCN2CCC(N3CCCC3=O)CC2)C1` [Example 135, N-[5-(5-Methanesulfonyl-1-{3-[4-(2-oxo-pyrrolidin-1-yl)-piperidin-1-yl]-propyl}-4,5,6,7-tetrahydro-1H-pyrazolo[4,3-c]pyridin-3-yl)-2-trifluoromethyl-benzyl]-2-piperidin-1-yl-acetamide], the IC50 came out at 410 nM.
As for `Cc1csc(C(=O)NCc2cc(-c3nn(CC(O)CN4CCC(N5CCCC5=O)CC4)c4c3CN(S(C)(=O)=O)CC4)ccc2C(F)(F)F)c1Cl` (stereo not shown) [Example 136, 3-Chloro-4-methyl-thiophene-2-carboxylic acid 5-(1-{2-hydroxy-3-[4-(2-oxo-pyrrolidin-1-yl)-piperidin-1-yl]-propyl}-5-methanesulfonyl-4,5,6,7-tetrahydro-1H-pyrazolo[4,3-c]pyridin-3-yl)-2-trifluoromethyl-benzylamide], the IC50 worked out at 410 nM.
Take `Cc1ncsc1C(=O)NCc1cc(-c2nn(CC(O)CN3CCC(N4CCCC4=O)CC3)c3c2CN(S(C)(=O)=O)CC3)ccc1C(F)(F)F` (stereo not shown) [Example 137, 4-Methyl-thiazole-5-carboxylic acid 5-(1-{2-hydroxy-3-[4-(2-oxo-pyrrolidin-1-yl)-piperidin-1-yl]-propyl}-5-methanesulfonyl-4,5,6,7-tetrahydro-1H-pyrazolo[4,3-c]pyridin-3-yl)-2-trifluoromethyl-benzylamide]: the IC50 was 410 nM.
Consider `CCSC(=O)NCc1cc(-c2nn(CCCN3CCC(N4CCCC4=O)CC3)c3c2CN(S(C)(=O)=O)CC3)ccc1C(F)(F)F` [Example 138, [5-(5-Methanesulfonyl-1-{3-[4-(2-oxo-pyrrolidin-1-yl)-piperidin-1-yl]-propyl}-4,5,6,7-tetrahydro-1H-pyrazolo[4,3-c]pyridin-3-yl)-2-trifluoromethyl-benzyl]-thiocarbamic acid S-ethyl ester], for which the IC50 turned out to be 430 nM.
Regarding `CS(=O)(=O)N1CCc2c(c(-c3ccc(C(F)(F)F)c(CNC(=O)c4ccc5nccnc5c4)c3)nn2CC(O)CN2CCC(N3CCCC3=O)CC2)C1` (stereo not shown) [Example 139, Quinoxaline-6-carboxylic acid 5-(1-{2-hydroxy-3-[4-(2-oxo-pyrrolidin-1-yl)-piperidin-1-yl]-propyl}-5-methanesulfonyl-4,5,6,7-tetrahydro-1H-pyrazolo[4,3-c]pyridin-3-yl)-2-trifluoromethyl-benzylamide], the IC50 came to 490 nM.
On the same count and under the same terms, with `CC(=O)NCc1cc(-c2nn(CC(O)CN3CCC(n4c(=O)n(C)c5ccc(N(C)C)nc54)CC3)c3c2CN(S(C)(=O)=O)CC3)ccc1C(F)(F)F` (stereo not shown) [Example 143, N-[5-(1-{3-[4-(5-Dimethylamino-1-methyl-2-oxo-1,2-dihydro-imidazo[4,5-b]pyridin-3-yl)-piperidin-1-yl]-2-hydroxy-propyl}-5-methanesulfonyl-4,5,6,7-tetrahydro-1H-pyrazolo[4,3-c]pyridin-3-yl)-2-trifluoromethyl-benzyl]-acetamide] the figure was 100 nM; with `CN(C)c1ccc2c(n1)n(C1CCN(CC(O)Cn3nc(-c4ccc(C(F)(F)F)c(CNC(=O)CO)c4)c4c3CCN(S(C)(=O)=O)C4)CC1)c(=O)n2C` (stereo not shown) [Example 152, 2-Hydroxy-N-[5-(1-{3-[4-(5-Dimethylamino-1-methyl-2-oxo-1,2-dihydro-imidazo[4,5-b]pyridin-3-yl)-piperidin-1-yl]-2-hydroxy-propyl}-5-methanesulfonyl-4,5,6,7-tetrahydro-1H-pyrazolo[4,3-c]pyridin-3-yl)-2-trifluoromethyl-benzyl]-acetamide], 250 nM.
